The first assay addresses T1, USP28 (His-tagged USP28-FL-mammalian) (Homo sapiens, UniProt Q96RU2).
T1 construct: Expression of USP28 (1-1077)-TEV-6*His (pTT5 vector) was carried out in Expi293f cells; made in house; host or cells: Expi293F cells (pTT5 vector)
T1 sequence (Q96RU2 1-1077): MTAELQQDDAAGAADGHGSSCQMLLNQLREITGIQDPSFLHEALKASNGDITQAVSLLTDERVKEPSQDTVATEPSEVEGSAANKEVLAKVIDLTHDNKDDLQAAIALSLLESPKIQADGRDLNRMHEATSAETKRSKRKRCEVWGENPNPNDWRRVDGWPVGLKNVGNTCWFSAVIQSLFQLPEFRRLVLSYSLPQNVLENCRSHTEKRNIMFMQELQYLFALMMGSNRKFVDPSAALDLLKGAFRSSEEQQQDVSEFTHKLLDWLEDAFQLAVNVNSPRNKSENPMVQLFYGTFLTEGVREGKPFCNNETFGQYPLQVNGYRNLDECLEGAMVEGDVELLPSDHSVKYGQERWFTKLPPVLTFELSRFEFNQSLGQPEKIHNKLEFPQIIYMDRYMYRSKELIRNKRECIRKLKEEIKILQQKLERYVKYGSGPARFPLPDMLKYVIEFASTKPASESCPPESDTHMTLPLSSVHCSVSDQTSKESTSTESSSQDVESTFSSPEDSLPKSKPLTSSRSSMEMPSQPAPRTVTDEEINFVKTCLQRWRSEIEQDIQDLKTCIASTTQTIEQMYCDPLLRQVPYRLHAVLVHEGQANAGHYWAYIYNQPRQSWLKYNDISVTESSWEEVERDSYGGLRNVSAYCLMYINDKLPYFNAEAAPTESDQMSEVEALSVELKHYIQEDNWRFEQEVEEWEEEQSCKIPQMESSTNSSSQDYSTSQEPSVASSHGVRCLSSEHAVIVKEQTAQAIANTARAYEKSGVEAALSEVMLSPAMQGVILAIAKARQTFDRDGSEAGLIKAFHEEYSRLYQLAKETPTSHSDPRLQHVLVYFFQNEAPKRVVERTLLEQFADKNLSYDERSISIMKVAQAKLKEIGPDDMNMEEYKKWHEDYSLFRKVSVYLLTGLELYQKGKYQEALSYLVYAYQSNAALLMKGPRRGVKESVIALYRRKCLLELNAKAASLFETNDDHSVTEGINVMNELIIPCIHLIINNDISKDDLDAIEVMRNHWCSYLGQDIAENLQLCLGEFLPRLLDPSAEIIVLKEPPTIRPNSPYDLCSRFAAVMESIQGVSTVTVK
Description: Ubiquitin-Rhodamine 110 Assay for USP28 Activity, Example A-1(a). In kind it is biochemical. The conditions noted are these: Ubiquitin-Rhodamine 110 biochemical assay, read-out: USP28 A-1(a) IC50 range. On the procedure:
Example A-1(a): Biochemical Assay: Ubiquitin-Rhodamine 110 Assay for USP28 Activity
The assay was performed in a final volume of 9 μL in assay buffer containing 20 mM Tris-HCl (pH 8.0, (1M Tris-HCl, pH 8.0 solution; Corning 46-031-CM)), 3 mM BME (2-Mercaptoethanol; Sigma 63689-25ML-F), 0.03% BGG (0.22 μM filtered, Sigma, G7516-25G), and 0.01% Triton X-100 (Sigma, T9284-10L). Nanoliter quantities of 10-point, 3-fold serial dilution in DMSO was pre-dispensed into 1536 assay plates (Corning, #3724BC) for a final test concentration of 25 μM to 1.3 nM, top to lowest dose, respectively. Enzyme USP28, construct His-tagged USP28-FL-mammalian, (protein expression and purification procedure described below). Concentration and incubation times were optimized for the maximal signal-to-background while maintaining initial velocity conditions at a fixed substrate concentration. The final concentration of the enzyme in the assay was […]. Final substrate (Ub-Rh110; Ubiquitin-Rhodamine 110, UbiQ-126) concentration was 25 nM with [Ub-Rh110]<<Km. 3 μL of 2× enzyme was added to assay plates (pre-stamped with compound) preincubated with […] for 30 minutes and then 3 μL of 2× Ub-Rh110 was added to assay plates. Plates were incubated for 45 minutes at room temperature before addition of 3 μL of stop solution (final concentration of 10 mM citric acid (Sigma, 251275-500G)). Fluorescence was read on the Envision (Excitation at 485 nm and Emission at 535 nm; Perkin Elmer) or on the PheraSTAR (Excitation at 485 nm and Emission at 535 nm; BMG Labtech).
Procedure for the Protein expression and purification for construct His-tagged USP28-FL-mammalian
Expression of USP28 (1-1077)-TEV-6*His (pTT5 vector) was carried out in Expi293f cells (sequence derived from uniprot ID: Q96RU2-1). Cells were re-suspended in lysis buffer B 50 mM Bicine, pH 8.0, 20 mM NaCl, 5% glycerol, 0.1% CHAPS, 5 mM β-ME, 1 mM PMSF, 1 ug/ml Leupeptin, 1 ug/ml Pepstatin) and lysed by sonication. Insoluble material was removed by centrifugation and the supernatant was loaded onto a Ni-NTA column (GE Healthcare) equilibrated with Ni Buffer A (50 mM Bicine, pH 8.0, 20 mM NaCl, 5% glycerol, 0.1% CHAPS, 5 mM R-ME.) and washed with Ni Buffer A+20 mM imidazole until A280 reached baseline. The protein was eluted with Ni Buffer B (50 mM Bicine, pH 8.0, 20 mM NaCl, 5% glycerol, 0.1% CHAPS, 5 mM β-ME, 300 mM imidazole.). The protein was further purified using a Superdex™ 200 10/300 GL column (GE Healthcare) equilibrated with 50 mM Bicine, pH 8.0, 20 mM NaCl, 5% glycerol, 0.1% CHAPS, 5 mM β-ME. The protein was concentrated to 2.5 mg ml-1, flash-frozen in liquid N2 and stored at −80° C.
For assay formats Example A-1(a), A-1(b), and A-2, data were reported as percent inhibition compared with control wells based on the following equation: % inh=1−((FLU−AveLow)/(AveHigh−AveLow)) where FLU=measured Fluorescence, AveLow=average Fluorescence of no enzyme control (n=16), and AveHighh=average Fluorescence of DMSO control (n=16). IC50 values were determined by curve fitting of the standard 4 parameter logistic fitting algorithm included in the Activity Base software package: IDBS XE Designer Model 205. Data is fitted using the Levenburg Marquardt algorithm.
Regarding `Cc1ccc2c(N)c(C(=O)N[C@H]3CCc4nc(N5CC[C@]6(CCCN6)C5)ccc4C3)sc2n1` [Example 505, 3-amino-N-[(6S)-2-[(5R)-1,7-diazaspiro[4.4]nonan-7-yl]-5,6,7,8-tetrahydroquinolin-6-yl]-6-methylthieno[2,3-b]pyridine-2-carboxamide], the IC50 lay within 50 to 200 nM.
Turning to `Cc1ccc2c(N)c(C(=O)N[C@H]3CCc4nc(N5C[C@H](N)[C@@]6(CCCCO6)C5)ccc4C3)sc2n1` [Example 508, 3-amino-N-[(6S)-2-[(4S,5R)-4-amino-6-oxa-2-azaspiro[4.5]decan-2-yl]-5,6,7,8-tetrahydroquinolin-6-yl]-6-methylthieno[2,3-b]pyridine-2-carboxamide], the IC50 is 50 to 200 nM.
Still for that read-out and setting: under `Cc1ccc2c(N)c(C(=O)N[C@H]3CCc4nc(N5C[C@H](N)[C@@]6(C5)OCC[C@@H]6C)ccc4C3)sc2n1` [Example 509, 3-amino-N-[(6S)-2-[(4S,5R,9S)-9-amino-4-methyl-1-oxa-7-azaspiro[4.4]nonan-7-yl]-5,6,7,8-tetrahydroquinolin-6-yl]-6-methylthieno[2,3-b]pyridine-2-carboxamide] stands 50 to 200 nM.
On the same count and under the same terms, under `Cc1ccc2c(N)c(C(=O)N[C@H]3CCc4nc(N5C[C@H](N)[C@@]6(C5)OCC[C@H]6C)ccc4C3)sc2n1` [Example 510, 3-amino-N-[(6S)-2-[(4R,5R,9S)-9-amino-4-methyl-1-oxa-7-azaspiro[4.4]nonan-7-yl]-5,6,7,8-tetrahydroquinolin-6-yl]-6-methylthieno[2,3-b]pyridine-2-carboxamide] stands 50 to 200 nM; under `Cc1ccc2c(N)c(C(=O)N[C@H]3CCc4nc(N5C[C@@H](N)[C@]6(C5)OCC[C@@H]6C)ccc4C3)sc2n1` [Example 511, 3-amino-N-[(6S)-2-[(4S,5S,9R)-9-amino-4-methyl-1-oxa-7-azaspiro[4.4]nonan-7-yl]-5,6,7,8-tetrahydroquinolin-6-yl]-6-methylthieno[2,3-b]pyridine-2-carboxamide], 200 to 2000 nM; under `Cc1ccc2c(N)c(C(=O)N[C@H]3CCc4nc(N5C[C@@H](N)[C@]6(C5)OCC[C@H]6C)ccc4C3)sc2n1` [Example 512, 3-amino-N-[(6S)-2-[(4R,5S,9R)-9-amino-4-methyl-1-oxa-7-azaspiro[4.4]nonan-7-yl]-5,6,7,8-tetrahydroquinolin-6-yl]-6-methylthieno[2,3-b]pyridine-2-carboxamide], 50 to 200 nM.
Still for that read-out and setting: under `COC[C@@H]1CN(c2ccc3c(n2)CC[C@H](NC(=O)c2sc4nc(C)c(F)cc4c2N)C3)C[C@@H]1N` [Example 513, 3-amino-N-[(6S)-2-[(3R,4R)-3-amino-4-(methoxymethyl)pyrrolidin-1-yl]-5,6,7,8-tetrahydroquinolin-6-yl]-5-fluoro-6-methylthieno[2,3-b]pyridine-2-carboxamide] stands 50 to 200 nM.
On to `CN[C@H]1CN(c2ccc3c(n2)CC[C@H](NC(=O)c2sc4nc(C)c(F)cc4c2N)C3)C[C@@H]1COC` [Example 515, 3-amino-5-fluoro-N-[(6S)-2-[(3S,4R)-3-(methoxymethyl)-4-(methylamino)pyrrolidin-1-yl]-5,6,7,8-tetrahydroquinolin-6-yl]-6-methylthieno[2,3-b]pyridine-2-carboxamide], for which the IC50 lay within 50 to 200 nM.
On the same count and under the same terms, the result for `Cc1ccc2c(N)c(C(=O)N[C@H]3CCc4nc(N5C[C@@H](COC(F)F)[C@@H](N)C5)ccc4C3)sc2n1` [Example 516, 3-amino-N-[(6S)-2-[(3R,4R)-3-amino-4-[(difluoromethoxy)methyl]pyrrolidin-1-yl]-5,6,7,8-tetrahydroquinolin-6-yl]-6-methylthieno[2,3-b]pyridine-2-carboxamide] reads 50 to 200 nM.
Same read-out and setting: under `Cc1ccc2c(N)c(C(=O)N[C@H]3CCc4nc(N5C[C@H](COC(F)F)[C@H](N)C5)ccc4C3)sc2n1` [Example 517, 3-amino-N-[(6S)-2-[(3S,4S)-3-amino-4-[(difluoromethoxy)methyl]pyrrolidin-1-yl]-5,6,7,8-tetrahydroquinolin-6-yl]-6-methylthieno[2,3-b]pyridine-2-carboxamide] stands 50 to 200 nM; under `Cc1ccc2c(N)c(C(=O)N[C@H]3CCc4nc(N5C[C@@H](N)CC(F)(F)C5)ccc4C3)sc2n1` [Example 518, 3-amino-N-[(6S)-2-[(5S)-5-amino-3,3-difluoropiperidin-1-yl]-5,6,7,8-tetrahydroquinolin-6-yl]-6-methylthieno[2,3-b]pyridine-2-carboxamide], 1 to 50 nM.
Same read-out and setting: under `Cc1ccc2c(N)c(C(=O)N[C@H]3CCc4nc(N5C[C@H](N)CC(F)(F)C5)ccc4C3)sc2n1` [Example 519, 3-amino-N-[(6S)-2-[(5R)-5-amino-3,3-difluoropiperidin-1-yl]-5,6,7,8-tetrahydroquinolin-6-yl]-6-methylthieno[2,3-b]pyridine-2-carboxamide] stands 1 to 50 nM; under `CCO[C@H]1CN(c2ccc3c(n2)CC[C@H](NC(=O)c2sc4nc(C)cnc4c2N)C3)C[C@@H]1N` [Example 520, 7-amino-N-[(6S)-2-[(3S,4S)-3-amino-4-ethoxypyrrolidin-1-yl]-5,6,7,8-tetrahydroquinolin-6-yl]-3-methylthieno[2,3-b]pyrazine-6-carboxamide], 200 to 2000 nM.

Staying with this assay, now noted: biochemical IC50 range, Ubiquitin-Rhodamine 110 assay, read-out: USP28 A-1(a).
Take `Cc1ccc2c(N)c(C(=O)N[C@H]3COc4nc(N5C[C@@H](CF)[C@@H](N)C5)ccc4C3)sc2n1` [Example 539, 3-amino-N-[(3R)-7-[(3R,4R)-3-amino-4-(fluoromethyl)pyrrolidin-1-yl]-2H,3H,4H-pyrano[2,3-b]pyridin-3-yl]-6-methylthieno[2,3-b]pyridine-2-carboxamide]: the IC50 lay in the range of 50 to 200 nM.
On the same count and under the same terms, under `Cc1ccc2c(N)c(C(=O)N[C@H]3COc4nc(N5C[C@H](CF)[C@H](N)C5)ccc4C3)sc2n1` [Example 540, 3-amino-N-[(3R)-7-[(3S,4S)-3-amino-4-(fluoromethyl)pyrrolidin-1-yl]-2H,3H,4H-pyrano[2,3-b]pyridin-3-yl]-6-methylthieno[2,3-b]pyridine-2-carboxamide] stands 50 to 200 nM.

The values above are taken from patent publication US12162888B2, “Carboxamides as ubiquitin-specific protease inhibitors” (Valo Early Discovery, Inc., priority 2018, dated 2024).
